Results as given in ChEMBL document CHEMBL5728460, “Pyrimidine compounds and pyrimido indole compounds and methods of use” (2021).
Values belong to the molecule of their own block, whether it stands above or below them.

Columns and labels:
[1] = TBD: TBD
[2] = biological target: Epidermal growth factor receptor (Homo sapiens, UniProt P00533); assay: TBD: TBD
[3] = biological target: Platelet-derived growth factor receptor beta (Homo sapiens, UniProt P09619); assay: TBD: TBD
[4] = biological target: Vascular endothelial growth factor receptor 1 (Homo sapiens, UniProt P17948); assay: TBD: TBD
[5] = biological target: Vascular endothelial growth factor receptor 2 (Homo sapiens, UniProt P35968); assay: TBD: TBD
Dihydrofolate reductase = biological target: T1, Dihydrofolate reductase (Homo sapiens, UniProt P00374); assay: TBD: TBD
T1 sequence (P00374 whole entry): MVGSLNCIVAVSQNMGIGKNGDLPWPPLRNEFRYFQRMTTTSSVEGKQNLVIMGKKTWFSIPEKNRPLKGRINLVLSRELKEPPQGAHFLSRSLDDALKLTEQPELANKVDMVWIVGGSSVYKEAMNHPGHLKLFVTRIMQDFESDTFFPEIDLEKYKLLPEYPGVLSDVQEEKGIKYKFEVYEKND

Epidermal growth factor receptor, sequence (P00533 whole entry): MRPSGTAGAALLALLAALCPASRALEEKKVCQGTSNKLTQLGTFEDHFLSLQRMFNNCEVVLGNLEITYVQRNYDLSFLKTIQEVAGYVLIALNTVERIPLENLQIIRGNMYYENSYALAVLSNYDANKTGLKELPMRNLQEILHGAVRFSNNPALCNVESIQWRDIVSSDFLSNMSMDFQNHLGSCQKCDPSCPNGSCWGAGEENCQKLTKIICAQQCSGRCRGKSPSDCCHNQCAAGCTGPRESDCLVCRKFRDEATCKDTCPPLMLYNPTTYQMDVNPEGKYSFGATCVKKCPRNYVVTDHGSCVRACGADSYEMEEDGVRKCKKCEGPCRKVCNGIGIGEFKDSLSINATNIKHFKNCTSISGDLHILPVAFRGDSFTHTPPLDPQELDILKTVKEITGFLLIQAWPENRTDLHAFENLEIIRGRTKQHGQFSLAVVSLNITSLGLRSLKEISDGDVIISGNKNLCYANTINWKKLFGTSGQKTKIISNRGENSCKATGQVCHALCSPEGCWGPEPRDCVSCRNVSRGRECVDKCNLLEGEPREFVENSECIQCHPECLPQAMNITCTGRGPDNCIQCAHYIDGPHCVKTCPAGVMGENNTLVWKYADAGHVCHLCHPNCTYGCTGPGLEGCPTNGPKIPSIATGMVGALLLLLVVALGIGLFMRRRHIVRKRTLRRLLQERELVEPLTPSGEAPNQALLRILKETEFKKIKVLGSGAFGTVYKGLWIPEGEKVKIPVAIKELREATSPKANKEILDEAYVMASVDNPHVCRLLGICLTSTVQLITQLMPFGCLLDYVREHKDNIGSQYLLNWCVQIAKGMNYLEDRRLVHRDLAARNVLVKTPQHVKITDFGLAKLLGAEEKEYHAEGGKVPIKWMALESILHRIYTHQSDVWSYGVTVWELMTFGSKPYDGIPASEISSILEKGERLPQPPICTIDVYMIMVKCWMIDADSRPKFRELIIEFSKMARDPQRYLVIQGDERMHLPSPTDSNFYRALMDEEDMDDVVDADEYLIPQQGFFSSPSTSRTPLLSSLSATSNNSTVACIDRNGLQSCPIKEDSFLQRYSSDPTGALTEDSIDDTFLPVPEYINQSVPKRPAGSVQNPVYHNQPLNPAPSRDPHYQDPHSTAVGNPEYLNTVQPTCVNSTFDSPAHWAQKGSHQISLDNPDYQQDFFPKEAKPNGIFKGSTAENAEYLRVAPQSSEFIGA
Vascular endothelial growth factor receptor 1, sequence (P17948 whole entry): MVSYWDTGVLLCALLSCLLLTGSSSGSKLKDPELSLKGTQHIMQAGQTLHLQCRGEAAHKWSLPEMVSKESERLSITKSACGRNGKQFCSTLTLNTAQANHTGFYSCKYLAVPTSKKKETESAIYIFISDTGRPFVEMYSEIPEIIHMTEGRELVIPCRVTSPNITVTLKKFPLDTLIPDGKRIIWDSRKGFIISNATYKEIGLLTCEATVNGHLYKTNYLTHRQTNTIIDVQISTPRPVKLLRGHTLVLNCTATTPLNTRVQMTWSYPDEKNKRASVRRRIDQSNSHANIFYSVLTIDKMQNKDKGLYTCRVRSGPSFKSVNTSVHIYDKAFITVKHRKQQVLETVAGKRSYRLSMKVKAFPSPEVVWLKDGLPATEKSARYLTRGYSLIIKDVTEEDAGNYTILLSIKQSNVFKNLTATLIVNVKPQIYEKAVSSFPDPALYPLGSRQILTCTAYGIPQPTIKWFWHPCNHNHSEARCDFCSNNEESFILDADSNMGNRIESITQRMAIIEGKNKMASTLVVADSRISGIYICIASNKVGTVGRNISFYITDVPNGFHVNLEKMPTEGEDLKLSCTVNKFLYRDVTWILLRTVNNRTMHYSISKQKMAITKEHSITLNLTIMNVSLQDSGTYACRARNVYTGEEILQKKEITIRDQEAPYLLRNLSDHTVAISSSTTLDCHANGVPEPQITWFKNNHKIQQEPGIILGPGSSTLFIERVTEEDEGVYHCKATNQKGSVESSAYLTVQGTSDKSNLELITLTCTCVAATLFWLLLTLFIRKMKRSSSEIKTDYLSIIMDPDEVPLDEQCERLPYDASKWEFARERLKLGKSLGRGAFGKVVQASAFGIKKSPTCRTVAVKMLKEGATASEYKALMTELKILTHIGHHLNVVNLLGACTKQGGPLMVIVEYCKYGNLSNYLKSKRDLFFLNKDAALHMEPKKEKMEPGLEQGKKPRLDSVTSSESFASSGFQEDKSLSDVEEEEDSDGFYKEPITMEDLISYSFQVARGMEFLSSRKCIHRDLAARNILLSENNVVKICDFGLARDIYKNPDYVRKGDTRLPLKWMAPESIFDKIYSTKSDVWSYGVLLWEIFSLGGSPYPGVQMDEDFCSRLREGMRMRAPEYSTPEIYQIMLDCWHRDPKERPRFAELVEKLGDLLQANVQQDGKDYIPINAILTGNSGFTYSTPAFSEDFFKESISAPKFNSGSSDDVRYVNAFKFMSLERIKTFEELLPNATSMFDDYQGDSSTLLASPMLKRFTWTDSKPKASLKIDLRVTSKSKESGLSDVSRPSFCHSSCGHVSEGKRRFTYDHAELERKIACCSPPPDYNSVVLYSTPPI
Platelet-derived growth factor receptor beta, sequence (P09619 whole entry): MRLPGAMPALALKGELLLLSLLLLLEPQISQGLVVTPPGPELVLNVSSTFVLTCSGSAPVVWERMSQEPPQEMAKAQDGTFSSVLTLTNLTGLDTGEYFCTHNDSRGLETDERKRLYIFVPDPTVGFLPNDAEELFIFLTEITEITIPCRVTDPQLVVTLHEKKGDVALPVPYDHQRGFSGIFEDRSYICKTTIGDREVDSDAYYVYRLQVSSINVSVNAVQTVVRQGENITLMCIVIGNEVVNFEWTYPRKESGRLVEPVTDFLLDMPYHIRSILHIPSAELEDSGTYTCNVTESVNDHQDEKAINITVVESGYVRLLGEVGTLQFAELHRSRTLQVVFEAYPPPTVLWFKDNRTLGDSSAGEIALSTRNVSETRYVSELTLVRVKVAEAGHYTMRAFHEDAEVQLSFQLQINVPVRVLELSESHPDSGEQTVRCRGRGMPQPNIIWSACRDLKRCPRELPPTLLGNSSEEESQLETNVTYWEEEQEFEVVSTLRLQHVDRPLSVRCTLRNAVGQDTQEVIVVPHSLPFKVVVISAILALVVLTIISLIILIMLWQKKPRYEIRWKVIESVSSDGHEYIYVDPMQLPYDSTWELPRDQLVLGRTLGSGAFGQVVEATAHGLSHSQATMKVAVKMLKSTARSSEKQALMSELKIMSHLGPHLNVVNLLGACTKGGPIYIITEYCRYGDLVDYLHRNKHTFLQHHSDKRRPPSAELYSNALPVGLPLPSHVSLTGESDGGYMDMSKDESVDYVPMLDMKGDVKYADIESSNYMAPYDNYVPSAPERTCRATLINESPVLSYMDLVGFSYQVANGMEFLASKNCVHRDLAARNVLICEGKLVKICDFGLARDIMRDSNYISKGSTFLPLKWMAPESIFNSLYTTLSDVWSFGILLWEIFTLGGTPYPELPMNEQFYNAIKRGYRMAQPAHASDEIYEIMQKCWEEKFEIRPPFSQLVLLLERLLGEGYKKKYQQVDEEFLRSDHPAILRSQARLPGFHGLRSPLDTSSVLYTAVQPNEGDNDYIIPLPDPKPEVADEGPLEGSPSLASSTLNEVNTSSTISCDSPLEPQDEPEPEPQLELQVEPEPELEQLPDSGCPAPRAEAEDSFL
Vascular endothelial growth factor receptor 2, sequence (P35968 whole entry): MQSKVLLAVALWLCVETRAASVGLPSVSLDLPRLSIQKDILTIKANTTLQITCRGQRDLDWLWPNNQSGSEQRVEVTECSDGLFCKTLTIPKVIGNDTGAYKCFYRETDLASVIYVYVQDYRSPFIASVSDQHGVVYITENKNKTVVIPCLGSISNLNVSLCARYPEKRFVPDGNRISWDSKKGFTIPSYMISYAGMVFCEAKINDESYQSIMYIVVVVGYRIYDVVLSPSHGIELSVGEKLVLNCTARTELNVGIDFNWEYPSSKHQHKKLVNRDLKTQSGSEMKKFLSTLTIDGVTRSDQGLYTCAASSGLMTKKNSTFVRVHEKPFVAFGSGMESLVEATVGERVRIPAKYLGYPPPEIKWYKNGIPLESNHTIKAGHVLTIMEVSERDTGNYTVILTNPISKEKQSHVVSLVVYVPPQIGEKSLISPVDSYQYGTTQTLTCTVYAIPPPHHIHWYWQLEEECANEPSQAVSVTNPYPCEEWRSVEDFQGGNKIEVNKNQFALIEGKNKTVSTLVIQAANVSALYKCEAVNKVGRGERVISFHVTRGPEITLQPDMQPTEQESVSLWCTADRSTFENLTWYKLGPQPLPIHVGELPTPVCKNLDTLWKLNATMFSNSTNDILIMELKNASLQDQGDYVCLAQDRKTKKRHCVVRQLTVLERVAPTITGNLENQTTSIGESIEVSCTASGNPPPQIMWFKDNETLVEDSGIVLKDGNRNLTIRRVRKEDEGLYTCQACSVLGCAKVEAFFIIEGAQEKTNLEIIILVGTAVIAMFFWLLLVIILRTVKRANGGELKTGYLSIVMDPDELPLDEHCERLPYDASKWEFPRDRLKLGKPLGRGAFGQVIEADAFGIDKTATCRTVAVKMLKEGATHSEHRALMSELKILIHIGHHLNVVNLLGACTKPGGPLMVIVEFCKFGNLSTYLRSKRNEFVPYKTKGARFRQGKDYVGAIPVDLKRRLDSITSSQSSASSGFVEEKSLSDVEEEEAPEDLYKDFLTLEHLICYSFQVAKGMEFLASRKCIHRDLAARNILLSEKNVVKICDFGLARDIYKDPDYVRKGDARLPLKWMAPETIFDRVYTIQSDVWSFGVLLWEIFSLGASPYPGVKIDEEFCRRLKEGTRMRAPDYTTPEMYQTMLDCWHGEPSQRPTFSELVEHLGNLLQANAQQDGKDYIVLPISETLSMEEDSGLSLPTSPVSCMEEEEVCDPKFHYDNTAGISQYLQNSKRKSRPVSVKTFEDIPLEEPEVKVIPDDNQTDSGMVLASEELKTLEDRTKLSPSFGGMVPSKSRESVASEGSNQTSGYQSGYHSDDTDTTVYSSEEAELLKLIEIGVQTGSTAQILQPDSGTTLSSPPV

Compound: COc1cc(C[C@H]2NCCc3cc(O)c(O)cc32)cc(OC)c1OC
IC50 [1]: 0.0021 µM

Compound: COc1ccccc1Sc1sc2nc(N)nc(N)c2c1C
IC50 [2]: 10.4 µM
IC50 [3]: 40.3 µM
IC50 [4]: 160 µM
IC50 [5]: 56.3 µM

Compound: COc1ccc(Sc2sc3nc(N)nc(N)c3c2C)cc1
IC50 (Dihydrofolate reductase): 1.41 µM

Second part, the molecule after the results:

IC50 [1]: 3.9 µM
IC50 (Dihydrofolate reductase): 0.91 µM
IC50 [2]: 15.1 µM
Compound: COc1ccc(Sc2sc3nc(N)nc(N)c3c2C)cc1OC

IC50 (Dihydrofolate reductase): 1.1 µM
Compound: COc1ccc(Sc2c(C)c3c(N)nc(N)nc3n2C)cc1OC
